Patent US10174057B2, “Metallacrown complexes and methods of making the same” (THE REGENTS OF THE UNIVERSITY OF MICHIGAN, priority 2013, dated 2019)

What was measured:
[1] = Luminescence lifetimes under excitation at 355 nm; type: physicochemical; conditions: for τobs: 298 K, excitation 355 nm; for q (inner sphere hydration number): calculated from kCH3OH and kCD3OD
Description: (§1) Luminescence data were collected on samples that were placed into 2.4 mm i.d. quartz capillaries or quartz Suprasil cells. Emission and excitation spectra were measured on a Horiba-Jobin-Yvon Fluorolog 3 spectrofluorimeter equipped with either a visible photomultiplier tube (PMT) (220-800 nm, R928P; Hamamatsu), a NIR solid-state InGaAs detector cooled to 77 K (800-1600 nm, DSS-IGA020L; Jobin-Yvon), or NIR PMTs (950-1450 nm, H10330-45; 950-1650 nm, H10330-75; Hamamatsu). All spectra were corrected for instrumental functions.
Luminescence lifetimes were determined under excitation at 355 nm provided by a Nd:YAG laser (YG 980; Quantel), while the signal was detected in the NIR by the aforementioned PMT (H10330-75). The output signal from the detectors was then fed to a 500 MHz bandpass digital oscilloscope (TDS 754C; Tektronix) and then transferred to a PC for treatment with Origin 8®. Luminescence lifetimes are averages of at least three independent measurements.
(§2) Luminescence spectra were recorded for the Ln(III) metallacrown complexes (Ln(III)=Yb, Nd, Er) in the solid state and in solution (CH3OH/CD3OD) using excitation at 420 nm or 370 nm.

[2] = test system: HeLa (Human Epithelial Ovarian Carcinoma) cells; test: NIR epifluorescence microscopy on HeLa cells; type: cell-based
Description: The preparation of the Yb(III) Metallacrowns and the description of the NIR Epifluorescence Microscopy are applicable for both experiments.
Yb^3+[12-MC-4]2[24-MC-8] was prepared as described above, and was dissolved in DMSO at an appropriate concentration, and was used as such or was incubated with beads for incorporation therein.
NIR epifluorescence microscopy was performed with an Axio Observer Z1 fluorescence inverted microscope (Zeiss, Le Pecq, France) equipped with an EMCCD Evolve 512 photometric camera (Roper Scientific). The EMCCD Evolve 512 photometric camera was linked to a computer driving the acquisition software Axiovision (Zeiss). The inverted microscope was equipped with Zeiss objectives (immersion Plan Apochromat 63x (Numerical Aperture (NA)=1.4), Plan Neofluar 40x (NA=0.75), Plan Apochromat 20x (NA=0.8)). A Zeiss HXP-120 light source (metal halide) was used as the excitation system, and was combined with a UV cube filter unit as follows: 377 nm band pass 50 nm filter for excitation, and long pass 805 nm filter for Yb(III) emission in the NIR range. […]
NIR Epifluorescence Microscopy was used to observe the treated cells after 24 hours of incubation with Yb^3+[12-MC-4]2[24-MC-8] and the untreated cells. […] As illustrated in both FIGS. 8E and 8F, the emission in the NIR range for the untreated HeLa cells was not detected. […]

[3] = Quantum yields in the NIR, absolute method using an integration sphere; type: physicochemical; conditions: 298 K, excitation 370 nm
Description: as §1
Quantum yields in the NIR were determined with a Fluorolog 3 spectrofluorimeter according to an absolute method using an integration sphere (GMP SA). Each sample was measured several times under slightly different experimental conditions. Estimated experimental error for quantum yields determination is 10%.
as §2

[4] = Absorption spectra in methanol; type: physicochemical; conditions: 298 K
Description: FIG. 2 is a graph of the absorption spectra of Ln(III) MC complexes (2.04·10^−5 M, Ln(III)=Gd, Nd, Yb, Er) and quinaldichydroxamic acid (quinHA) (2.42·10^−4 M) in methanol at 298 K, where the absorption spectrum of quinHA was multiplied by 16 times;
Upon deprotonation and formation of the metallacrown framework, Ln(III)[12-MC-4]2[24-MC-8], a broad absorption appears in the near-visible region with an apparent maximum at 380 nm (ε≈5.5·10^4 M^−1 cm^−1) and cutoff at 470 nm. In FIG. 2, the results are shown for the Gd(III), Nd(III), Yb(III), and Er(III).

[5] = Emission spectra and ligand energy levels (singlet, triplet, CT); type: physicochemical; conditions: for energy of the triplet state: determined on the 0-0 transition
Description: FIG. 3 is a graph depicting the corrected and normalized emission spectra of quinHA (10 mg/mL) under excitation at 290 in methanol at 77 K and Gd(III) MC (10 mg/mL) under excitation at 290 nm or 340 nm in methanol at 298 K and 77 K;
as §1
At 77 K, strong green luminescence centered at 510 nm with a weak band in the 325-460 nm range. The latter band disappeared upon enforcing a delay of 100 μs, so it can be assigned to a short-lived fluorescence while the green emission is phosphorescence. The energy of the triplet state of quinHA, determined on the 0-0 transition, can therefore be estimated as 21 000 cm−1 (476 nm).
The energy gap between ground and excited states for Gd(III) is very high and, therefore, it is impossible for the Gd(III) ion in the corresponding metallacrown complex to be sensitized with 300-400 nm excitation. It is believed that this feature can be used to determine the energy levels of the metallacrown complexes in the absence of energy transfer to the Ln(III) ion. The Gd(III) metallacrown complex was exposed to UV excitation into the ligand-based charge transfer band at 340 nm at room temperature, resulting in a weak broad-band emission with a maximum at 580-590 nm (FIG. 3). Lowering the temperature to 77 K led to a slight sharpening of the band and a shift of the maximum to 545-555 nm (FIG. 3). […] The position of the triplet state determined from the spectrum of Gd(III) metallacrown complex was the same as for quinHA within experimental error, 20 920 cm^−1 (478 nm). The position of the lowest excited singlet and the ligand-based charge transfer (CT) states were determined from the intersection of the absorption and emission (fluorescence) spectra of quinHA and Gd^3+[12-MC-4]2[24-MC-8], respectively, and found to be located at 29 850 cm^−1 (335 nm) and 21 560 cm^−1 ([…]). A proposed schematic diagram of the quinHA ligand's energy levels (singlet, triplet and CT) with respect to the energy levels of Yb(III), Nd(III) and Er(III) lanthanide ions and possible energy migration paths are shown in FIG. 4.

[6] = excitation 290 nm, 77 K, methanol
[7] = intersection of absorption and emission spectra

Row | Compound | τobs ([1]; CD3OD, 0.1 mg/mL) | τobs ([1]; CD3OD, 1 mg/mL) | τobs ([1]; CH3OH, 0.1 mg/mL) | q (inner sphere hydration number) ([1]; CH3OH, 0.1 mg/mL) | τobs ([1]; CH3OH, 1 mg/mL) | q (inner sphere hydration number) ([1]; CH3OH, 1 mg/mL) | τobs ([1]; Solid) | QLn/%L (quantum yield) ([3]; CD3OD, 0.1 mg/mL) | QLn/%L (quantum yield) ([3]; CD3OD, 1 mg/mL) | QLn/%L (quantum yield) ([3]; CH3OH, 0.1 mg/mL) | QLn/%L (quantum yield) ([3]; CH3OH, 1 mg/mL) | QLn/%L (quantum yield) ([3]; Solid) | energy of the triplet state [5] | further results
1 | ErZn16(quinHA)16(OTf)3 [Er(III)MC] | – | 11.40(3) μs | – | – | 1.25(1) μs | – | 5.73(2) μs | – | 3.60(6) · 10^−2% | – | 9.9(3) · 10^−4% | 4.2(1) · 10^−2% | – | –
2 | GdZn16(quinHA)16(OTf)3 [Gd(III) metallacrown complex] | – | – | – | – | – | – | – | – | – | – | – | – | 20 920 cm^−1 | emission maximum ([5]; 77 K, time delay of 100 μs): 510 nm; emission maximum ([5]; excitation 340 nm, 77 K): 545-555 nm; emission maximum ([5]; excitation 340 nm, room temperature, weak broad-band emission): 580-590 nm; position of the ligand-based charge transfer (CT) state [5, 7]: 21 560 cm^−1

More lines, main results first:

Row | τobs ([1]; CD3OD, 0.1 mg/mL) | τobs ([1]; CD3OD, 1 mg/mL) | τobs ([1]; CH3OH, 0.1 mg/mL) | q (inner sphere hydration number) ([1]; CH3OH, 0.1 mg/mL) | τobs ([1]; CH3OH, 1 mg/mL) | q (inner sphere hydration number) ([1]; CH3OH, 1 mg/mL) | τobs ([1]; Solid) | QLn/%L (quantum yield) ([3]; CD3OD, 0.1 mg/mL) | QLn/%L (quantum yield) ([3]; CD3OD, 1 mg/mL) | QLn/%L (quantum yield) ([3]; CH3OH, 0.1 mg/mL) | QLn/%L (quantum yield) ([3]; CH3OH, 1 mg/mL) | QLn/%L (quantum yield) ([3]; Solid) | energy of the triplet state [5] | Compound | further results
3 | 144.6(5) μs | 150.7(2) μs | 15.14(4) μs | 0 | 14.88(1) μs | 0 | 47.8(4) μs | 2.91(7) % | 2.88(2) % | 0.27(1) % | 0.25(1) % | 2.44(4) % | – | YbZn16(quinHA)16(OTf)3 [Yb(III)MC] | emission in the NIR range of treated cells ([2]; Experiment 1: 1 μM, 24 hours, λex=377 nm, long pass 805 nm, 500 ms exposure): unambiguously detected; Yb(III) emission in the NIR range of treated cells ([2]; both experiments (1 μM 24 h; 5 μM 11-12 h), short exposure times): unambiguously detected
4 | 4.00(1) μs | 4.11(3) μs | 1.16(1) μs | 0 | 1.16(1) μs | 0 | 1.79(2) μs | 1.38(1) % | 1.35(1) % | 0.40(1) % | 0.38(1) % | 1.13(4) % | – | NdZn16(quinHA)16(OTf)3 [Nd(III)MC] | –
5 | – | – | – | – | – | – | – | – | – | – | – | – | 21 000 cm^−1 | O=C(NO)c1ccc2ccccc2n1 [quinHA, quinaldichydroxamic acid] | long wavelength absorption cutoff [4]: 340 nm; melting point: 146 to 148 °C; green luminescence (phosphorescence) centre [5, 6]: 510 nm; weak band (short-lived fluorescence) [5, 6]: 325-460 nm; emission upon UV excitation ([5]; excitation 290 nm, room temperature, methanol): did not display any detectable emission; position of the lowest excited singlet state [5, 7]: 29 850 cm^−1
